Measurements published in US20240024317A1, “CANCER TREATMENT USING BOSENTAN IN COMBINATION WITH A CHECKPOINT INHIBITOR” (Materia Therapeutics Inc., priority 2020, published 2024).

Experiments:
4T1 tumors = assay: Dynamic contrast-enhanced ultrasound (DCEUS) perfusion measures; format: in vivo, mice; conditions: bosentan treated versus control or immunotherapy cocktail only
Procedure: Dynamic contrast-enhanced ultrasound (DCEUS). Tumor associated vascular perfusion was assessed with DCEUS after bolus injection of contrast agents (8 μl of sulphur hexafluoride microbubbles encapsulated by a phospholipid shell with a mean diameter of 2.5 μm, retro-orbital administration). Ultrasound scanning of tumor was performed using the L12-5 transducer. Contrast first harmonic signals were received at 8 MHz with a mechanical index of 0.06. For all subjects the depth was set to 3 cm allowing measurements of the full depth of the tumor. Gain was set at 90% for each recording. Focus was optimized and standardized for each subject when finding the tumor area using B-mode imaging. Real-time power modulation imaging was started after flashing imaging with a high mechanical index to destroy the microbubbles in tumor tissue to peak contrast intensity to allow visualization of bubble replenishment. Image analysis was performed offline using an ultrasound quantification and analysis software (QLAB, Phillips Medical Systems). From the produced time intensity curves, we used as measures of perfusion the Mean transit time and the time required to reach the peak intensity (Rise time). […]

[1] = test system: orthotopic 4T1 breast tumors; assay: Pimonidazole hypoxia staining (hypoxic area fraction); format: in vivo, mice; conditions: 1 mg/kg; 4T1 (FIG. 2B)
Procedure: Because reducing collagen I levels and tissue stiffness decompresses vessels, it was hypothesized that hypoxia, which is an indicator of decreased blood flow to the tumor, would be reduced with bosentan treatment. […] For the hypoxia studies, Mice bearing orthotopic E0771 or 4T1 breast tumors were injected (intraperitoneal) with 60 mg/kg of pimonidazole HCl at 2 hr prior to tumor removal. Prior to tumors excision, animals were anesthetized via Avertin (200 mg/kg, intraperitoneal). Primary tumors were then excised, fixed in 4% PFA, embedded in OCT and processed accordingly for IHC. Hypoxic regions were detected using the mouse anti-pimonidazole RED 549 conjugate antibody (HP7-100Kit, 1:100). Hypoxic area fraction across different treatment groups was normalized to DAPI staining. For fluorescent immunohistochemistry, tumors were removed, washed twice in 1× PBS for 10 min and incubated with 4% PFA overnight at 4° C. The fixative was aspirated, and samples washed twice in 1× PBS for 10 min. Fixed tissues were embedded in optimal cutting temperature compound in cryomolds (Tissue-Tek) and frozen completely at −20° C. […] CD31 signal was detected with Alexa Fluor-488 anti-rabbit IgG (H+L) and CD3 signal with Alexa Fluor-647 anti-rat IgG (H+L) secondary antibodies. Tumor associated T cell and vessel content was determined by the CD31 and CD3 area fraction normalized to DAPI staining. […]

Which “mean transit time (DCEUS)” value (4T1 tumors) does the source give for `COc1ccccc1Oc1c(NS(=O)(=O)c2ccc(C(C)(C)C)cc2)nc(-c2ncccn2)nc1OCCO` [bosentan, 4-tert-butyl-N-[6-(2-hydroxy-ethoxy)-5-(2-methoxy-phenoxy)-2-(pyrimidin-2-yl)pyrimidin-4-yl] benzenesulfonamide] here?
The value was “higher”.

And the “rise time (DCEUS)” value (4T1 tumors)?
Its value is “higher”.

What about the “hypoxia (hypoxic area fraction)” value [1] of the same molecule?
Its value is “reduced hypoxia”.
